Entries after “also recorded” stand apart in the source; their conditions may differ.
Assays:
rat liver Microsomes = experiment: Magnetometer detection of substrate metabolism by rat liver microsomes; conditions: for Magnetometer chart response to substrate, RLM / Magnetometer chart response to substrate, RLM + NADPH: rat liver microsomes 1 mg protein/ml; for Magnetometer chart response to substrate, RLM: no NADPH stated; for Magnetometer chart response to substrate, RLM + NADPH: NADPH present
pig liver chromatin = experiment: Magnetometer detection of substrate metabolism by pig liver chromatin
pig liver nuclei = experiment: Magnetometer detection of substrate response in pig liver nuclei; type: in vitro ADME; conditions: pig liver nuclei 1 mg protein/ml, without NADPH

Structure (SMILES)	Metabolized by rat liver Microsomes (rat liver Microsomes; Non-NADPH-dependent)	Metabolized by rat liver Microsomes (rat liver Microsomes; NADPH-dependent)	Metabolized by pig liver chromatin (pig liver chromatin; NADPH-dependent)	other results
Nc1ncnc2c1ncn2[C@@H]1O[C@H](CO)[C@@H](O)[C@H]1O [adenosine]	+			Magnetometer chart response to substrate, RLM (rat liver Microsomes): No further change in slope
Cc1c(N(C)C)c(=O)n(-c2ccccc2)n1C [aminopyrine]		+	−	
CN(C)CCC=C1c2ccccc2CCc2ccccc21 [amitryptyline]		+	+	
Nc1ccccc1 [aniline]		+	−	
C[C@]12CCC(=O)C=C1CC[C@@H]1[C@@H]2[C@@H](O)C[C@@]2(C)[C@H]1CC[C@]2(O)C(=O)CO [cortisol]		+	−	
C[C@]12CC[C@@H]3c4ccc(O)cc4CC[C@H]3[C@@H]1CC[C@@H]2O [estridiol, β-estradiol]			−	
CNCCC(Oc1ccc(C(F)(F)F)cc1)c1ccccc1 (stereo not shown) [fluoxetine]		+		
NCCc1c[nH]cn1 [histamine]	+			Metabolized by pig liver chromatin (pig liver chromatin; Non-NADPH-dependent): +
N[C@@H](Cc1c[nH]cn1)C(=O)O [histidine]	+			Magnetometer chart response to substrate, PLN (pig liver nuclei): PLN. Response to HD.; Magnetometer chart response to substrate, RLM + NADPH (rat liver Microsomes): RLM + NADPH. Two response to HD, short latency in both.; Magnetometer chart response to substrate, RLM (rat liver Microsomes): Enhanced slope; Metabolized by pig liver chromatin (pig liver chromatin; Non-NADPH-dependent): ++; Magnetometer chart response to substrate, CHROM (pig liver chromatin; chromatin from pig liver nuclei 1 mg protein/ml, without NADPH, listed as HD): PBT (50) B 10 CHROM Response to HD; also recorded: PGT 100 CHROM (700) B. Response to HD
N[C@H](CO)Cc1c[nH]cn1 [histidinol]	+			Metabolized by pig liver chromatin (pig liver chromatin; Non-NADPH-dependent): +
CC(=O)[C@H]1CC[C@H]2[C@@H]3CCC4=CC(=O)CC[C@]4(C)[C@H]3CC[C@]12C [progresterone, progesterone]		+		
NCCCCN [putrescine]		+	+	Magnetometer chart response to substrate, PLN (pig liver nuclei): PLN. No response to PUTR until NADPH added.; Magnetometer chart response to substrate, RLM + NADPH (rat liver Microsomes): Increased slope; Magnetometer chart response to substrate, RLM + NADPH (rat liver Microsomes; listed as PU): PU (10) NADPH (10) response seen at end of record; also recorded: Response to PU
C[C@]12CC[C@H]3[C@@H](CCC4=CC(=O)CC[C@@]43C)[C@@H]1CC[C@@H]2O [testosterone]		−	+	Magnetometer chart response to substrate, CHROM in presence of NADPH (pig liver chromatin; chromatin from pig liver nuclei, NADPH present): CHROM. Response to TEST in presence of NADPH
